# Results from patent publication US20080015237A1 (ASTRAZENECA AB, priority 2006, published 2008).
# Target: human Kv1.5 channel (Homo sapiens, UniProt P22460)
# Test: Test A: Rb+ efflux assay
# Type: cell-based
# Settings: CHO cells stably transfected with cDNA for human Kv1.5
# Protocol: This assay identifies compounds that block the human Kv1.5 channel potassium channel heterologously expressed in Chinese Hamster Ovary (CHO) cells by means of Rb+ ion efflux using Flame Atomic Absorption Spectroscopy. For experimental studies, CHO cells stably transfected with cDNA for human Kv1.5 were grown as confluent layers in Falcon, 384-well tissue culture-treated black-walled clear-bottomed plates and the plates were incubated overnight at 37° C. in a cell culture incubator.
# After incubating overnight the cell plates were washed and a buffer containing Rb+ ions were added to the cell plates. The plates were then incubated for another 3-4 hours in a CO2-incubator (37° C.). Following this incubation period plates were washed, compounds were added and subsequently a buffer containing elevated K+ concentrations were added in order to activate the Kv1.5 channel. Following a short incubation time, aliquots of the supernatants were transferred to supernatant plates for subsequent determination of the Rb+ content using Atomic Absorption Spectrometry (ICR8000 instrument, Aurora Biomed Inc.).
# Sequence of human Kv1.5 channel (P22460 whole entry): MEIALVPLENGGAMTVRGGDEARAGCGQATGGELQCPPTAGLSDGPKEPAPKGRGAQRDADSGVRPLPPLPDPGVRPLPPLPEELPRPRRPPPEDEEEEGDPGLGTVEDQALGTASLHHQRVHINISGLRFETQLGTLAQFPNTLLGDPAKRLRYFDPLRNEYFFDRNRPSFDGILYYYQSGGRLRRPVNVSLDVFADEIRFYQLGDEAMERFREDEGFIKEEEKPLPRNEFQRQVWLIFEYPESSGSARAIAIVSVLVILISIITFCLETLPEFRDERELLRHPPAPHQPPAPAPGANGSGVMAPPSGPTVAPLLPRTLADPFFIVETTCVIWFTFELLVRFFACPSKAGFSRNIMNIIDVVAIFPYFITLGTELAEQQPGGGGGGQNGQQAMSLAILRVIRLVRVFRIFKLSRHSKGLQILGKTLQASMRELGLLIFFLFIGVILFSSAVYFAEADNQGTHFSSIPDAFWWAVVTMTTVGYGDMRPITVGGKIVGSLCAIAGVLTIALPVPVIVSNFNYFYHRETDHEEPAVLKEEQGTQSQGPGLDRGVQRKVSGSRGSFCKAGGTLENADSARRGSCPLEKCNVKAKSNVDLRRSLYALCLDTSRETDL
row,SMILES,IC50
1,CCCCNC(=O)C1c2c(F)cccc2C(=O)N1CC(C)c1ccc(Cl)cc1 (stereo not drawn),1.3 µM
2,"CCCCNC(=O)C1c2cc(F)ccc2C(=O)N1CC(C)c1ccc(Cl)cc1 (single isomer, unassigned) [(1R or 1S)-N-butyl-2-[(2R or 2S)-2-(4-chlorophenyl)propyl]-6-fluoro-3-oxoisoindoline-1-carboxamide]",0.5 µM
3,"CC(C)(C)NC(=O)C1c2ccccc2C(=O)N1Cc1ccccc1-c1ccc(F)c(F)c1 (single isomer, unassigned) [(1S or 1R)-N-(tert-butyl)-2-[(3′,4′-difluorobiphenyl-2-yl)methyl]-3-oxoisoindoline-1-carboxamide]",5.5 µM
4,"Cc1c(O)ccc2c1C(=O)N(Cc1ccccc1-c1ccccc1)C2C(=O)NC(C)(C)C (single isomer, unassigned) [(R or S) 2-(biphenyl-2-ylmethyl)-N-(tert-butyl)-5-hydroxy-4-methyl-3-oxoisoindoline-1-carboxamide]",1.1 µM
5,"Cc1c(O)ccc2c1C(=O)N(Cc1ccccc1-c1ccccc1)C2C(=O)NC(C)(C)C (single isomer, unassigned) [(S or R) 2-(biphenyl-2-ylmethyl)-N-(tert-butyl)-5-hydroxy-4-methyl-3-oxoisoindoline-1-carboxamide]",17 µM
6,"O=C(NCCCC(F)(F)F)C1c2ccccc2C(=O)N1Cc1ccccc1-c1ccccc1 (stereo not drawn) [2-(biphenyl-2-ylmethyl)-3-oxo-N-(4,4,4-trifluorobutyl)isoindoline-1-carboxamide]",1.5 µM
7,O=C(NCc1ccc(C(F)(F)F)nc1)C1c2ccccc2C(=O)N1Cc1ccccc1-c1ccccc1 (stereo not drawn) [2-(biphenyl-2-ylmethyl)-3-oxo-N-{[6-(trifluoromethyl)pyridin-3-yl]methyl}isoindoline-1-carboxamide],0.94 µM
8,CCCNC(=O)C1c2cc(Cl)ccc2C(=O)N1Cc1ccccc1-c1ccccc1 (stereo not drawn) [2-(biphenyl-2-ylmethyl)-6-chloro-3-oxo-N-propylisoindoline-1-carboxamide],1.1 µM
9,O=C(NCc1ccc(C(F)(F)F)nc1)C1c2cc(Cl)ccc2C(=O)N1Cc1ccccc1-c1ccccc1 (stereo not drawn) [2-(biphenyl-2-ylmethyl)-6-chloro-3-oxo-N-{[6-(trifluoromethyl)pyridin-3-yl]methyl}isoindoline-1-carboxamide],1.5 µM
10,CCNC(=O)C1c2cc(Cl)ccc2C(=O)N1Cc1ccccc1-c1ccccc1 (stereo not drawn) [2-(biphenyl-2-ylmethyl)-6-chloro-N-ethyl-3-oxoisoindoline-1-carboxamide],1 µM
11,"O=C(NCCCC(F)(F)F)C1c2cc(F)ccc2C(=O)N1Cc1ccccc1-c1ccccc1 (stereo not drawn) [2-(biphenyl-2-ylmethyl)-6-fluoro-3-oxo-N-(4,4,4-trifluorobutyl)isoindoline-1-carboxamide]",2.7 µM
12,CCCNC(=O)C1c2cc(F)ccc2C(=O)N1Cc1ccccc1-c1ccccc1 (stereo not drawn) [2-(biphenyl-2-ylmethyl)-6-fluoro-3-oxo-N-propylisoindoline-1-carboxamide],2.8 µM
13,N#Cc1ccc(CNC(=O)C2c3ccccc3C(=O)N2Cc2ccccc2-c2ccccc2)cc1 (stereo not drawn) [2-(biphenyl-2-ylmethyl)-N-(4-cyanobenzyl)-3-oxoisoindoline-1-carboxamide],2.8 µM
14,Cc1c(OCF)ccc2c1C(=O)N(Cc1ccccc1-c1ccccc1)C2C(=O)NC(C)(C)C (stereo not drawn) [2-(biphenyl-2-ylmethyl)-N-(tert-butyl)-5-(fluoromethoxy)-4-methyl-3-oxoisoindoline-1-carboxamide],1.7 µM
15,COc1ccc2c(c1C)C(=O)N(Cc1ccccc1-c1ccccc1)C2C(=O)NC(C)(C)C (stereo not drawn) [2-(biphenyl-2-ylmethyl)-N-(tert-butyl)-5-methoxy-4-methyl-3-oxoisoindoline-1-carboxamide],2.2 µM
16,CC(C)(C)NC(=O)C1c2cc(Cl)ccc2C(=O)N1Cc1ccccc1-c1ccccc1 (stereo not drawn) [2-(biphenyl-2-ylmethyl)-N-(tert-butyl)-6-chloro-3-oxoisoindoline-1-carboxamide],1.6 µM
17,CC(C)(C)NC(=O)C1c2cc(C#N)ccc2C(=O)N1Cc1ccccc1-c1ccccc1 (stereo not drawn) [2-(biphenyl-2-ylmethyl)-N-(tert-butyl)-6-cyano-3-oxoisoindoline-1-carboxamide],2.4 µM
18,CC(C)(C)NC(=O)C1c2cc(F)ccc2C(=O)N1Cc1ccccc1-c1ccccc1 (stereo not drawn) [2-(biphenyl-2-ylmethyl)-N-(tert-butyl)-6-fluoro-3-oxoisoindoline-1-carboxamide],6.7 µM
19,CC(C)(C)NC(=O)C1c2c(O)cccc2C(=O)N1Cc1ccccc1-c1ccccc1 (stereo not drawn) [2-(biphenyl-2-ylmethyl)-N-(tert-butyl)-7-hydroxy-3-oxoisoindoline-1-carboxamide],3 µM
20,O=C(NCc1ccc(F)cc1)C1c2ccccc2C(=O)N1C(c1ccccc1)c1ccccc1 (stereo not drawn) [2-(diphenylmethyl)-N-(4-fluorobenzyl)-3-oxoisoindoline-1-carboxamide],2.5 µM
21,"CC(CN1C(=O)c2ccccc2C1C(=O)NCCCC(F)(F)F)c1ccc(Cl)cc1 (stereo not drawn) [2-[2-(4-chlorophenyl)propyl]-3-oxo-N-(4,4,4-trifluorobutyl)isoindoline-1-carboxamide]",1.8 µM
22,CCCNC(=O)C1c2ccccc2C(=O)N1CC(C)c1ccc(Cl)cc1 (stereo not drawn) [2-[2-(4-chlorophenyl)propyl]-3-oxo-N-propylisoindoline-1-carboxamide],1.3 µM
23,CCCNC(=O)C1c2cc(F)ccc2C(=O)N1CC(C)c1ccc(Cl)cc1 (stereo not drawn) [2-[2-(4-chlorophenyl)propyl]-6-fluoro-3-oxo-N-propylisoindoline-1-carboxamide],2.3 µM
24,CC(CN1C(=O)c2ccccc2C1C(=O)NCc1ccc(C#N)cc1)c1ccc(Cl)cc1 (stereo not drawn) [2-[2-(4-chlorophenyl)propyl]-N-(4-cyanobenzyl)-3-oxoisoindoline-1-carboxamide],1.2 µM
25,CC(CN1C(=O)c2ccccc2C1C(=O)NCc1ccc(N(C)C)cc1)c1ccc(Cl)cc1 (stereo not drawn) [2-[2-(4-chlorophenyl)propyl]-N-[4-(dimethylamino)benzyl]-3-oxoisoindoline-1-carboxamide],1.8 µM

# The next lines start with the values.
row,IC50,SMILES
1,13 µM,"CC(C)(C)NC(=O)C1c2ccccc2C(=O)N1Cc1ccccc1-c1ccc(F)c(F)c1 (single isomer, unassigned) [(1R or 1S)-N-(tert-butyl)-2-[(3′,4′-difluorobiphenyl-2-yl)methyl]-3-oxoisoindoline-1-carboxamide]"
2,1.5 µM,"CC(c1ccccc1)N1C(=O)c2ccccc2C1C(=O)NCc1ccccc1 (single isomer, unassigned) [(1R or 1S)-N-benzyl-3-oxo-2-[(1S or 1R)-1-phenylethyl]isoindoline-1-carboxamide]"
3,1.7 µM,"CCCCNC(=O)C1c2cc(F)ccc2C(=O)N1CC(C)c1ccc(Cl)cc1 (single isomer, unassigned) [(1R or 1S)-N-butyl-2-[(2S or 2R)-2-(4-chlorophenyl)propyl]-6-fluoro-3-oxoisoindoline-1-carboxamide]"
4,0.73 µM,"CCCCNC(=O)C1c2cc(F)ccc2C(=O)N1CC(C)c1ccc(Cl)cc1 (single isomer, unassigned) [(1S or 1R)-N-butyl-2-[(2R or 2S)-2-(4-chlorophenyl)propyl]-6-fluoro-3-oxoisoindoline-1-carboxamide]"
5,15 µM,"CCCCNC(=O)C1c2cc(F)ccc2C(=O)N1CC(C)c1ccc(Cl)cc1 (single isomer, unassigned) [(1S or 1R)-N-butyl-2-[(2S or 2R)-2-(4-chlorophenyl)propyl]-6-fluoro-3-oxoisoindoline-1-carboxamide]"
6,2 µM,N#Cc1cccc(CNC(=O)C2c3ccccc3C(=O)N2Cc2cccc(Cl)c2)c1 (stereo not drawn) [2-(3-chlorobenzyl)-N-(3-cyanobenzyl)-3-oxoisoindoline-1-carboxamide]
7,2.4 µM,CC(C)(C)NC(=O)C1c2cc(Br)ccc2C(=O)N1Cc1ccccc1-c1ccccc1 (stereo not drawn) [2-(biphenyl-2-ylmethyl)-6-bromo-N-(tert-butyl)-3-oxoisoindoline-1-carboxamide]
8,0.61 µM,"O=C(NCCCC(F)(F)F)C1c2cc(Cl)ccc2C(=O)N1Cc1ccccc1-c1ccccc1 (stereo not drawn) [2-(biphenyl-2-ylmethyl)-6-chloro-3-oxo-N-(4,4,4-trifluorobutyl)isoindoline-1-carboxamide]"
9,2.4 µM,O=C(NCc1ccc(CNC(=O)C2c3ccccc3C(=O)N2Cc2ccccc2-c2ccccc2)cc1)C(F)F (stereo not drawn) [2-(biphenyl-2-ylmethyl)-N-(4-{[(difluoroacetyl)amino]methyl}benzyl)-3-oxoisoindoline-1-carboxamide]
10,0.7 µM,CC(CN1C(=O)c2ccccc2C1C(=O)NCc1ccccc1C(F)(F)F)c1ccc(Cl)cc1 (stereo not drawn) [2-[2-(4-chlorophenyl)propyl]-3-oxo-N-[2-(trifluoromethyl)benzyl]isoindoline-1-carboxamide]
11,0.78 µM,CC(CN1C(=O)c2ccccc2C1C(=O)NCc1ccc(C(F)(F)F)nc1)c1ccc(Cl)cc1 (stereo not drawn) [2-[2-(4-chlorophenyl)propyl]-3-oxo-N-{[6-(trifluoromethyl)pyridin-3-yl]methyl}isoindoline-1-carboxamide]
12,1.9 µM,CC(CN1C(=O)c2ccccc2C1C(=O)NCc1ccc(F)cc1)c1ccc(Cl)cc1 (stereo not drawn) [2-[2-(4-chlorophenyl)propyl]-N-(4-fluorobenzyl)-3-oxoisoindoline-1-carboxamide]
13,0.62 µM,CC(CN1C(=O)c2ccccc2C1C(=O)NCCc1c[nH]c2ccccc12)c1ccc(Cl)cc1 (stereo not drawn) [2-[2-(4-chlorophenyl)propyl]-N-[2-(1H-indol-3-yl)ethyl]-3-oxoisoindoline-1-carboxamide]
14,0.58 µM,"CC(CN1C(=O)c2ccccc2C1C(=O)NCc1ccc2c(c1)OC(F)(F)O2)c1ccc(Cl)cc1 (stereo not drawn) [2-[2-(4-chlorophenyl)propyl]-N-[(2,2-difluoro-1,3-benzodioxol-5-yl)methyl]-3-oxoisoindoline-1-carboxamide]"
